Experimental data taken from publication PMC3781056, “New Pyrazolopyrimidine Inhibitors of Protein Kinase D as Potent Anticancer Agents for Prostate Cancer Cells” (PLoS ONE, 2013).
Read-outs that look alike come from different tables or passages of the source.

Assays:
[1] = test system: PC3 prostate cancer cells; assay: Cell proliferation assay (cell counts); assay type: cell-based; settings: 30 µM, starting at day 2 to day 6
Protocol: PKD has emerged as a promising therapeutic target for cancer. […] Cell proliferation was determined by treating the cells at 30 µM concentration of agent, and then cell number was counted for six consecutive days in the presence and absence of inhibitor.
PC3 cells were plated in triplicates in 24-well plates. Cells were allowed to attach overnight. […] Cells were counted daily for a total of 5 days. Fresh media and inhibitor were added every 2 days. The means of triplicate determinations were plotted over time. The experiment was repeated twice and results from one representative experiment are shown. […] PC3 cells were seeded into 96-well plates (3000 cells/well) and were then incubated in media containing 0.3–100 µM inhibitors for 72 h. MTT solution was added to each well and incubated for 4 h. Optical density was read at 570 nm to determine cell viability. The IC50 was determined as the mean of two independent experiments for each compound. C. […] Cell cycle distribution was determined by flow cytometry after propidium iodide labeling of fixed cells. Statistical significance was determined by unpaired t-test and is indicated. **, p<0.01; ***, p<0.001. […]
Proliferation of PC3 cells was measured by counting the number of viable cells upon trypan blue staining as previously described. […] The labeled cells were analyzed using a FACSCalibur flow cytometer (BD Biosciences).

PC3 cells [2] = assay: MTT assay; assay type: cell-based
Protocol: PC3 cells were plated in triplicates in 24-well plates. Cells were allowed to attach overnight. […] Cells were counted daily for a total of 5 days. Fresh media and inhibitor were added every 2 days. The means of triplicate determinations were plotted over time. The experiment was repeated twice and results from one representative experiment are shown. […] PC3 cells were seeded into 96-well plates (3000 cells/well) and were then incubated in media containing 0.3–100 µM inhibitors for 72 h. MTT solution was added to each well and incubated for 4 h. Optical density was read at 570 nm to determine cell viability. The IC50 was determined as the mean of two independent experiments for each compound. C. […] Cell cycle distribution was determined by flow cytometry after propidium iodide labeling of fixed cells. Statistical significance was determined by unpaired t-test and is indicated. **, p<0.01; ***, p<0.001. […] The label 1-NA-PP1 is taken from panels A and C, where it is the only substance named in the picture.
PC3 cells were seeded into 96-well plates (3000 cells/well) and allowed to attach overnight. Cells were then incubated in media containing […] inhibitors for 72 h. […] The plate was mix by shaking for 5 min and the optical density was determined at 570 nm.

PC3 cells [3] = assay: Wound healing assay (cell migration); assay type: cell-based; settings: PC3, 30 µM, 22 h after wounding; control completely closed
Protocol: A.1-NA- PP1 blocked prostate cancer cell migration. PC3 cells were grown to confluence in 6-well plates. Monolayer was wounded and imaged immediately (0 h). […] Percentage wound healing was calculated as the percent of healed wound area as compared to the original wound. […] After 20 h, noninvasive cells were removed and invasive cells were fixed in 100% methanol, stained in 0.4% hematoxylin solution, and photographed. The number of cells that invaded the Matrigel matrix was determined by cell counts in 6 fields relative to the number of cells that migrated through the control insert. Percentage invasion was calculated as the percent of the cells invaded through Matrigel inserts vs. the total cells migrated through the control inserts. C. […] DU145 cells were infected with null, PKD1, and PKD3 adenoviruses (Adv-null, Adv-PKD1, and Adv-PKD3) at 100 MOI. After 24 h, cells were replated in control and Matrigel inserts, and a Matrigel invasion assay was conducted as described above. The overexpression of PKD1 and PKD3 was confirmed by Western blotting analysis (images below the graphs). […]
PC3 or DU145 cells were grown to confluence in 6-well plates. […] The wound gap was measured, and % wound healing was calculated. The average % wound healing was determined based on at least 6 measurements of the wound gap.

[4] = test system: DU145 cells infected with Adv-PKD1 or Adv-PKD3; assay type: cell-based
Protocol: After 20 h, noninvasive cells were removed and invasive cells were fixed in 100% methanol, stained in 0.4% hematoxylin solution, and photographed. The number of cells that invaded the Matrigel matrix was determined by cell counts in 6 fields relative to the number of cells that migrated through the control insert. Percentage invasion was calculated as the percent of the cells invaded through Matrigel inserts vs. the total cells migrated through the control inserts. […] DU145 cells were infected with null, PKD1, and PKD3 adenoviruses (Adv-null, Adv-PKD1, and Adv-PKD3) at 100 MOI. After 24 h, cells were replated in control and Matrigel inserts, and a Matrigel invasion assay was conducted as described above. […] All the above experiments were repeated at least three times and data from a representative experiment are shown.

PKD isoforms = assay: Radiometric PKD kinase assay, summary statement for PKD isoforms; assay type: biochemical, human; settings: approximate, all PKD isoforms; read-out: concentration that blocked 50% of PKD activity
Protocol: Recombinant human PKD1, 2, or 3 proteins were incubated in a mixture containing a peptide substrate derived from a PKD substrate, HDAC-5, and 10 different concentrations of the two compounds.

CC(C)(C)n1nc(-c2cccc3ccccc23)c2c(N)ncnc21 [Compound 1-NA-PP1, 1-(t-Butyl)-3-(naphthalen-1-yl)-1H-pyrazolo[3,4-d]pyrimidin-4-amine]
effect on PC3 cell proliferation (cell counts) [1]: drastic growth arrest | IC50 (PC3 cells [2]; Homo sapiens, PC-3, 72 h, read-out: IC50 for cell death (MTT), PC3 cells, 72 h): 23.3 ± 5.7 µM | IC50 (PC3 cells [2]; read-out: IC50 for cell death (MTT), PC3 cells, 72 h): ~20 µM | wounded area remaining open (PC3 cells [3]): 88.6% | effect of PKD1 or PKD3 overexpression on inhibition of cell invasion [4]: completely reversed | IC50 (PKD isoforms): ~0.1 µM
